This passage reports IC50 results from article PMC6321601 (Molecules, 2018).

The test system of experiment [1] is L-O2 human normal liver cells. The experiment in a line: MTT assay, toxicity against L-O2 normal cells. The class given is cell-based. Particulars: Homo sapiens, 72 h incubation, mean of three independent experiments. How it is done: (§1) HepG-2 human hepatocellular carcinoma cells and L-O2 human normal liver cells were maintained in DMEM culture medium supplemented with 10% FBS at 37 °C under a humidified atmosphere with 5% CO2.
(§2) HepG-2 and L-O2 cells in logarithmic growth phase were seeded into a 96-well plate at 5 × 10^3/well/200 µL. After 12 h, compounds at different concentrations were added and incubated for 72 h at 37 °C, 5% CO2. Then, 20 µL MTT (5 mg/mL) was added into each well and incubated for 4 h. The supernatant was discarded, and the precipitate was dissolved with DMSO. The absorbance of the optical density (OD) at 570 nm was detected using a microplate reader and the IC50 was calculated with GraphPad Prism 5.
A general note: Tetrazolium dyes change colour on reduction, which living cells bring about.

Experiment [2] has as its system HepG-2 human hepatocellular carcinoma cells. The experiment in a line: MTT assay, proliferation of HepG-2 cells. Conditions: Homo sapiens, HepG2, 72 h incubation, mean of three independent experiments. Type of experiment: cell-based. How it is done: as §1, §2

On to `CC(=O)OC(C)(C)/C=C/C(=O)[C@](C)(O)C1[C@H](OC(=O)CCC(=O)OCCCCCCCCCOc2no[n+]([O-])c2S(=O)(=O)c2ccccc2)C[C@@]2(C)C3CC=C4C(CC(O)C(=O)C4(C)C)[C@]3(C)C(=O)C[C@]12C` (stereo partly drawn) [Compound 10h, 4-((9-((4-(((9R,13R,14S,16R)-17-((R,E)-6-Acetoxy-2-hydroxy-6-methyl-3-oxohept-4-en-2-yl)-2-hydroxy-4,4,9,13,14-pentamethyl-3,11-dioxo-2,3,4,7,8,9,10,11,12,13,14,15,16,17-tetradecahydro-1H-cyclopenta[a]phenanthren-16-yl)oxy)-4-oxobutanoyl)oxy)nonyl)oxy)-3-(phenylsulfonyl)-1,2,5-oxadiazole 2-oxide], for which the IC50 (as a rule, the concentration that gives 50% inhibition) in experiment [1] is 1170 ± 80 nM; in experiment [2], 1150 ± 240 nM.

For the molecule `CC(=O)OC(C)(C)/C=C/C(=O)[C@](C)(O)C1[C@H](OC(=O)/C=C/c2ccccc2)C[C@@]2(C)C3CC=C4C(C[C@H](OC(=O)/C=C/c5ccccc5)C(=O)C4(C)C)[C@]3(C)C(=O)C[C@]12C` (stereo partly drawn) [Compound 4, (2S,9R,13R,14S,16R)-17-((R,E)-6-Acetoxy-2-hydroxy-6-methyl-3-oxohept-4-en-2-yl)-4,4,9,13,14-pentamethyl-3,11-dioxo-2,3,4,7,8,9,10,11,12,13,14,15,16,17-tetradecahydro-1H-cyclopenta[a]phenanthrene-2,16-diyl (2E,2′E)-bis(3-phenylacrylate)], the IC50 in experiment [1] and in experiment [2] was over 20000 nM each time.

For `CC(=O)OC(C)(C)/C=C/C(=O)[C@](C)(O)C1[C@H](OC(=O)CCC(=O)OCCOc2no[n+]([O-])c2S(=O)(=O)c2ccccc2)C[C@@]2(C)C3CC=C4C(CC(O)C(=O)C4(C)C)[C@]3(C)C(=O)C[C@]12C` (stereo partly drawn) [Compound 10a, 4-(2-((4-(((9R,13R,14S,16R)-17-((R,E)-6-Acetoxy-2-hydroxy-6-methyl-3-oxohept-4-en-2-yl)-2-hydroxy-4,4,9,13,14-pentamethyl-3,11-dioxo-2,3,4,7,8,9,10,11,12,13,14,15,16,17-tetradecahydro-1H-cyclopenta[a]phenanthren-16-yl)oxy)-4-oxobutanoyl)oxy)ethoxy)-3-(phenylsulfonyl)-1,2,5-oxadiazole 2-oxide], the results for the IC50 in experiment [1] and in experiment [2] were 2040 ± 670 nM and 820 ± 330 nM, respectively.

On to `CC(=O)OC(C)(C)/C=C/C(=O)[C@](C)(O)C1[C@H](OC(=O)CCc2ccccc2NC(=O)OC(C)(C)C)C[C@@]2(C)C3CC=C4C(C[C@H](O)C(=O)C4(C)C)[C@]3(C)C(=O)C[C@]12C` (stereo partly drawn) [Compound 3g, (2S,9R,13R,14S,16R)-17-((R,E)-6-Acetoxy-2-hydroxy-6-methyl-3-oxohept-4-en-2-yl)-2-hydroxy-4,4,9,13,14-pentamethyl-3,11-dioxo-2,3,4,7,8,9,10,11,12,13,14,15,16,17-tetradecahydro-1H-cyclopenta[a]phenanthren-16-yl 3-(2-((tert-butoxycarbonyl)amino)phenyl)propanoate], for which the figures for the IC50 in experiment [1] and in experiment [2] were 42 ± 1 nM and 220 ± 110 nM, respectively.

For the molecule `CC(=O)OC(C)(C)/C=C/C(=O)[C@](C)(O)C1[C@H](OC(=O)CCC(=O)N2CCN(CCOc3no[n+]([O-])c3S(=O)(=O)c3ccccc3)CC2)C[C@@]2(C)C3CC=C4C(CC(O)C(=O)C4(C)C)[C@]3(C)C(=O)C[C@]12C` (stereo partly drawn) [Compound 9c, 4-(2-(4-(4-(((9R,13R,14S,16R)-17-((R,E)-6-Acetoxy-2-hydroxy-6-methyl-3-oxohept-4-en-2-yl)-2-hydroxy-4,4,9,13,14-pentamethyl-3,11-dioxo-2,3,4,7,8,9,10,11,12,13,14,15,16,17-tetradecahydro-1H-cyclopenta[a]phenanthren-16-yl)oxy)-4-oxobutanoyl)piperazin-1-yl)ethoxy)-3-(phenylsulfonyl)-1,2,5-oxadiazole 2-oxide], the results for the IC50 in experiment [1] and in experiment [2] were 2610 ± 1770 nM and 920 ± 160 nM, respectively.
